# Experimental data: patent US8729082B2, “Substituted imidazoquinoxalines” (Bayer Intellectual Property GmbH, priority 2009, dated 2014)
# Biological target: T1, human kinase Mps-1 (Homo sapiens, UniProt P33981)
# T1 construct: N-terminally GST-tagged human full length recombinant Mps-1 kinase; purchased Invitrogen, Karslruhe, Germany PV4071
# T1 sequence (P33981 1-857): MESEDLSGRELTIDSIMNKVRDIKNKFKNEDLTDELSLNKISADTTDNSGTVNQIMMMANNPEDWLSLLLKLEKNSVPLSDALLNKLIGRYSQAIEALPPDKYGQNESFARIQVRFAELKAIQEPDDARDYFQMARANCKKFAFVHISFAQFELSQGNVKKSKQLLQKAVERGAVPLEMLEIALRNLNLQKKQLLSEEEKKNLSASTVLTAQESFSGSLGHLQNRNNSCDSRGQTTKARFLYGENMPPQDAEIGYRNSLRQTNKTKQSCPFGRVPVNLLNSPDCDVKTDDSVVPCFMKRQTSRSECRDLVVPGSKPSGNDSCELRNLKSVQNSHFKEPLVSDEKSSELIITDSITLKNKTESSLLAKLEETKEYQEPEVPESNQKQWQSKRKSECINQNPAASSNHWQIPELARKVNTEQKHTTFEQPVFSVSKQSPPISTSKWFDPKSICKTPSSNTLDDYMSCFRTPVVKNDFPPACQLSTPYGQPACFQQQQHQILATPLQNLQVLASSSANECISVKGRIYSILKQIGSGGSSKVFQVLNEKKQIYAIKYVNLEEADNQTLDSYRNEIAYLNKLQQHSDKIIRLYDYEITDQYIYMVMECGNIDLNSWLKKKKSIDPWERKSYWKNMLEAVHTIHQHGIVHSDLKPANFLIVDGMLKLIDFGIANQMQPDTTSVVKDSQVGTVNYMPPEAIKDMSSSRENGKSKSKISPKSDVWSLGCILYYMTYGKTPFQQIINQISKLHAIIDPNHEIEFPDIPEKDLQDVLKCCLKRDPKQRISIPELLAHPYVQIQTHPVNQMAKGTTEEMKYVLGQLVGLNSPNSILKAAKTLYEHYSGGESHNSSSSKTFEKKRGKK
# Experiment: Mps-1 kinase assay (HTRF)
# Assay type: biochemical
# Details: lowATP; mean; read-out: Mps1 lowATP mean IC50
# Method in brief: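 HTRF readout: EDTA-stopped reactions incubated 1 h with europium anti-phospho(Ser/Thr) antibody and streptavidin-XLent, emission ratio 665/620 nm after 350 nm excitation. Kinase step: compound pre-bound 15 min to ~1 nM GST-Mps-1, then 60 min at 22 °C with ATP and biotin-peptide substrate; inhibition scaled between no-inhibitor (0%) and no-enzyme (100%) controls.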
row,SMILES,IC50 [µM]
1,"Cn1ccc(Nc2nc3ccccc3n3c(-c4ccc(C(=O)NC5CC5)cc4)cnc23)n1 [Example 2-37, N-cyclopropyl-4-{4-[(1-methyl-1H-pyrazol-3-yl)amino]imidazo[1,2-a]quinoxalin-1-yl}benzamide]",1.05
2,"CCCNc1nc2cc(C)c(C)cc2n2c(-c3ccc(C(=O)NC4CC4)cc3)cnc12 [Example 2-144, N-cyclopropyl-4-[7,8-dimethyl-4-(propylamino)imidazo[1,2-a]quinoxalin-1-yl]benzamide]",0.00415
3,"CC(C)CNc1nc2ccccc2n2c(-c3ccc(S(C)(=O)=O)cc3)cnc12 [Example 1-40, N-(2-methylpropyl)-1-[4-(methylsulfonyl)phenyl]imidazo[1,2-a]quinoxalin-4-amine]",17.4
4,"COc1cc(C(=O)NC2CCN(C)CC2)ccc1Nc1nc2ccccc2n2c(-c3ccc(C(=O)NC4CC4)cc3)cnc12 [Example 2-39, 4-({1-[4-(cyclopropylcarbamoyl)phenyl]imidazo[1,2-a]quinoxalin-4-yl}amino)-3-methoxy-N-(1-methylpiperidin-4-yl)benzamide]",0.786
5,"Cc1cc2nc(NCc3cnn(C)c3)c3ncc(-c4ccc(C(=O)NC5CC5)c(Cl)c4)n3c2cc1C [Example 2-200, 2-chloro-N-cyclopropyl-4-(7,8-dimethyl-4-{[(1-methyl-1H-pyrazol-4-yl)methyl]amino}imidazo[1,2-a]quinoxalin-1-yl)benzamide]",0.0676
6,"O=C(NC1CC1)c1ccc(-c2cnc3c(NCc4cccc(Cl)c4)nc4ccccc4n23)cc1 [Example 2-7, 4-{4-[(3-chlorobenzyl)amino]imidazo[1,2-a]quinoxalin-1-yl}-N-cyclopropylbenzamide]",0.222
7,"CNC(=O)Nc1ccc(-c2cnc3c(NCc4cccnc4)nc4cc(C#N)ccc4n23)cc1 [Example 2-230, 1-(4-{7-cyano-4-[(pyridin-3-ylmethyl)amino]imidazo[1,2-a]quinoxalin-1-yl}phenyl)-3-methylurea]",1.41
8,"CC(C)CNc1nc2ccccc2n2c(-c3ccc(C(=O)NCC(N)=O)cc3)cnc12 [Example 3-12, N-(2-amino-2-oxoethyl)-4-{4-[(2-methylpropyl)amino]imidazo[1,2-a]quinoxalin-1-yl}benzamide]",1.51
9,"CC(C)CNc1nc2ccccc2n2c(-c3cc[nH]n3)cnc12 [Example 1-43, N-(2-methylpropyl)-1-(1H-pyrazol-3-yl)imidazo[1,2-a]quinoxalin-4-amine]",10.4
10,"Cc1cc2nc(NCCS(N)(=O)=O)c3ncc(-c4ccc(C(=O)NC5CC5)c(Cl)c4)n3c2cc1C [Example 2-201, 2-chloro-N-cyclopropyl-4-{7,8-dimethyl-4-[(2-sulfamoylethyl)amino]imidazo[1,2-a]quinoxalin-1-yl}benzamide]",0.0623
11,"CC(C)CNc1nc2ccccc2n2c(-c3ccc(C(=O)NCCc4cccnc4)cc3)cnc12 [Example 3-20, 4-{4-[(2-methylpropyl)amino]imidazo[1,2-a]quinoxalin-1-yl}-N-[2-(pyridin-3-yl)ethyl]benzamide]",4.48
12,"CNC(=O)Nc1ccc(-c2cnc3c(NCCNC(C)=O)nc4cc(C#N)ccc4n23)cc1 [Example 2-228, N-{2-[(7-cyano-1-{4-[(methylcarbamoyl)amino]phenyl}imidazo[1,2-a]quinoxalin-4-yl)amino]ethyl}acetamide]",9.78
13,"C#CCNC(=O)c1ccc(-c2cnc3c(NCC(C)C)nc4ccccc4n23)cc1 [Example 3-13, 4-{4-[(2-methylpropyl)amino]imidazo[1,2-a]quinoxalin-1-yl}-N-(prop-2-yn-1-yl)benzamide]",0.0412
14,"O=C(NC1CC1)c1ccc(-c2cnc3c(NCCCCO)nc4cc(F)c(F)cc4n23)cc1 [Example 2-96, N-cyclopropyl-4-{7,8-difluoro-4-[(4-hydroxybutyl)amino]imidazo[1,2-a]quinoxalin-1-yl}benzamide]",0.0595
15,"CNC(=O)c1ccc(-c2cnc3c(NCC(C)C)nc4ccccc4n23)cc1 [Example 1-17, N-methyl-4-{4-[(2-methylpropyl)amino]imidazo[1,2-a]quinoxalin-1-yl}benzamide]",0.192
16,"Cn1cc(CNc2nc3ccc(F)cc3n3c(-c4ccc(C(=O)NC5CC5)cc4)cnc23)cn1 [Example 2-58, N-cyclopropyl-4-(8-fluoro-4-{[(1-methyl-1H-pyrazol-4-yl)methyl]amino}imidazo[1,2-a]quinoxalin-1-yl)benzamide]",0.105
17,"Cn1nccc1CNc1nc2ccc(F)cc2n2c(-c3ccc(C(=O)NC4CC4)c(Cl)c3)cnc12 [Example 2-85, 2-chloro-N-cyclopropyl-4-(8-fluoro-4-{[(1-methyl-1H-pyrazol-5-yl)methyl]amino}imidazo[1,2-a]quinoxalin-1-yl)benzamide]",0.761
18,"Cc1cc2nc(NCc3cnn(C)c3)c3ncc(-c4ccc(C(=O)NC5CC5)cc4)n3c2cc1C [Example 2-157, N-cyclopropyl-4-(7,8-dimethyl-4-{[(1-methyl-1H-pyrazol-4-yl)methyl]amino}imidazo[1,2-a]quinoxalin-1-yl)benzamide]",0.00544

# Continued by falling IC50, values first:
row,IC50 [µM],SMILES
1,12.1,"CC(C)CNc1nc2ccccc2n2c(-c3cnn(C)c3)cnc12 [Example 1-18, N-(2-methylpropyl)-1-(1-methyl-1H-pyrazol-4-yl)imidazo[1,2-a]quinoxalin-4-amine]"
2,10.1,"O=C(NC1CC1)c1ccc(-c2cnc3c(NCCCN4CCCC4=O)nc4ccc(F)cc4n23)cc1Cl [Example 2-77, 2-chloro-N-cyclopropyl-4-(8-fluoro-4-{[3-(2-oxopyrrolidin-1-yl)propyl]amino}imidazo[1,2-a]quinoxalin-1-yl)benzamide]"
3,8.18,"CC(C)CNc1nc2ccccc2n2c(-c3ccccc3)cnc12 [Example 1-6, N-(2-methylpropyl)-1-phenylimidazo[1,2-a]quinoxalin-4-amine]"
4,6.46,"CC(C)CNc1nc2ccccc2n2c(-c3ccc4cn[nH]c4c3)cnc12 [Example 1-49, 1-(1H-indazol-6-yl)-N-(2-methylpropyl)imidazo[1,2-a]quinoxalin-4-amine]"
5,4.99,"CNC(=O)Nc1ccc(-c2cnc3c(NCCCn4ccnc4)nc4cc(C#N)ccc4n23)cc1 [Example 2-229, 1-[4-(7-cyano-4-{[3-(1H-imidazol-1-yl)propyl]amino}imidazo[1,2-a]quinoxalin-1-yl)phenyl]-3-methylurea]"
6,4.57,"CC(C)CNc1nc2ccccc2n2c(-c3ccc(C(=O)Nc4ccc(CN5CCN(C)CC5)c(C(F)(F)F)c4)cc3)cnc12 [Example 3-31, N-{4-[(4-methylpiperazin-1-yl)methyl]-3-(trifluoromethyl)phenyl}-4-{4-[(2-methylpropyl)amino]imidazo[1,2-a]quinoxalin-1-yl}benzamide]"
7,2.88,"CC(C)(C)OC(=O)NCCCNc1nc2ccc(F)cc2n2c(-c3ccc(C(=O)NC4CC4)c(Cl)c3)cnc12 [Example 2-84, tert-butyl [3-({1-[3-chloro-4-(cyclopropylcarbamoyl)phenyl]-8-fluoroimidazo[1,2-a]quinoxalin-4-yl}amino)propyl]carbamate]"
8,2.49,"CNC(=O)Nc1ccc(-c2cnc3c(NCc4cnn(C)c4)nc4ccc(F)cc4n23)cc1 [Example 2-72, 1-[4-(8-fluoro-4-{[(1-methyl-1H-pyrazol-4-yl)methyl]amino}imidazo[1,2-a]quinoxalin-1-yl)phenyl]-3-methylurea]"
9,0.546,"N#Cc1ccc2c(c1)nc(NCc1cccs1)c1ncc(-c3ccc(C(=O)NC4CC4)c(Cl)c3)n12 [Example 2-241, 2-chloro-4-{7-cyano-4-[(thiophen-2-ylmethyl)amino]imidazo[1,2-a]quinoxalin-1-yl}-N-cyclopropylbenzamide]"
10,0.396,"O=C(NC1CC1)c1ccc(-c2cnc3c(NCCCN4CCOCC4)nc4ccccc4n23)cc1 [Example 2-2, N-cyclopropyl-4-(4-{[3-(morpholin-4-yl)propyl]amino}imidazo[1,2-a]quinoxalin-1-yl)benzamide]"
11,0.287,"N#Cc1ccc(CNc2nc3ccccc3n3c(-c4ccc(C(=O)NC5CC5)cc4)cnc23)cc1 [Example 2-34, 4-{4-[(4-cyanobenzyl)amino]imidazo[1,2-a]quinoxalin-1-yl}-N-cyclopropylbenzamide]"
12,0.01,"CCCCNc1nc2cc(C#N)ccc2n2c(-c3ccc(C(=O)NC4CC4)cc3)cnc12 [Example 2-212, 4-[4-(butylamino)-7-cyanoimidazo[1,2-a]quinoxalin-1-yl]-N-cyclopropylbenzamide]"
13,0.00283,"Cc1cc2nc(NCCCCO)c3ncc(-c4ccc(C(=O)NC5CC5)cc4)n3c2cc1C [Example 2-146, N-cyclopropyl-4-{4-[(4-hydroxybutyl)amino]-7,8-dimethylimidazo[1,2-a]quinoxalin-1-yl}benzamide]"
